Reference: patent US20070111265A1, “Ligands for mineralocorticoid receptor (MR) and methods for screening for or designing MR ligands” (Van Andel Research Institute, priority 2005, published 2007)
Where a chain is given by its changes, count along the chain named. Values joined by “and” are separate entries in the source; they are usually repeats but may differ in a detail not shown here. Equal entries are not always repeated. Where two headings read alike, the source gives them in different places.

How the values were obtained:
MR L848Q = molecular target: T1, MR L848Q (Homo sapiens, UniProt P08235, L848Q); assay: MMTV luciferase reporter assay in Cos-7 cells; assay type: cell-based
T1 construct: (S843P and L848Q) within the context of the full length wild type receptor; expressed in transfected cells; host or cells: Cos-7
T1 sequence (P08235 1-984 L848Q): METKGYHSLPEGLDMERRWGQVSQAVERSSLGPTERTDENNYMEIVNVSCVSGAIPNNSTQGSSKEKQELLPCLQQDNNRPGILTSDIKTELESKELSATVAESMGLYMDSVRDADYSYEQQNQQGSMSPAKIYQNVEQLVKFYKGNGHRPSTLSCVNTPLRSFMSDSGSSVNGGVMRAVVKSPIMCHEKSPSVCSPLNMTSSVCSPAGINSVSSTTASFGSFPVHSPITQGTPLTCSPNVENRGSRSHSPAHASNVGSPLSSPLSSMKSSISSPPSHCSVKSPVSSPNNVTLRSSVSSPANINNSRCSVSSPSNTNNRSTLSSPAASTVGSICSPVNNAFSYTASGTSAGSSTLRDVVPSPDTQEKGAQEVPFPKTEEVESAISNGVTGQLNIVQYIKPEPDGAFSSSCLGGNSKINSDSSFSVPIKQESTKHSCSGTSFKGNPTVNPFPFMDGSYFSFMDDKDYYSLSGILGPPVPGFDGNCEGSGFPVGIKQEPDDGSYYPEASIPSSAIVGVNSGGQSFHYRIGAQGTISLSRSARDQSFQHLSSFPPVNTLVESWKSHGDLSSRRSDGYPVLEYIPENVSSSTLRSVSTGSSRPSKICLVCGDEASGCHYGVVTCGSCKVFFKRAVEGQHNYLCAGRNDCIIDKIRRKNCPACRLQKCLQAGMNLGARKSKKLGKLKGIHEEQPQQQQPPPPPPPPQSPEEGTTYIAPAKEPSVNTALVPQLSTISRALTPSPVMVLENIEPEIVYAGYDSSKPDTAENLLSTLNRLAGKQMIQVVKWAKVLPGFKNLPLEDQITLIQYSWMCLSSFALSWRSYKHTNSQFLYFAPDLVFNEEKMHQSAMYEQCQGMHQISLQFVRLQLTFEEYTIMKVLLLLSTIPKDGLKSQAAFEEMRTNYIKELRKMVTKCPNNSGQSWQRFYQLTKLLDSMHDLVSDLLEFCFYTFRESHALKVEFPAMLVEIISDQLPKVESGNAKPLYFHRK
Experimental: (§1) Cos-7 cells were maintained in DMEM containing 10% fetal bovine serum (FBS) and were transiently transfected using Lipofectamine 2000 (Invitrogen). […] Cells were transfected in Opti-MEM with 400 ng of MMTV-Luc reporter plasmid and 400 ng of receptor expression vector (pRS vector) encoding full-length GR and MR respectively (ATCC). […] Luciferase data were normalized to Renilla activity as an internal control.
(§2) To validate the role of the key MR pocket residues in hormone recognition, the inventors mutated S843 and L848 to the corresponding GR residues (S843P and L848Q) within the context of the full length wild type receptor. […] We also performed reverse mutations in the full length GR receptor (P637S and Q642L) and tested them in the same MMTV reporter.

[1] = molecular target: T2, wild type MR (full-length) (Homo sapiens, UniProt P08235); assay: MMTV luciferase reporter assay in Cos-7 cells; assay type: cell-based
T2 construct: receptor expression vector (pRS vector) encoding full-length GR and MR respectively (ATCC); host or cells: Cos-7
T2 sequence (P08235 1-984): T1 sequence (P08235 1-984 L848Q) with Q848L
Experimental: as §1, §2

[2] = Cos-7, MMTV-Luc, read-out: EC50, activation of wild type MR
[3] = summary of FIG. 5 dose-response, read-out: affinity to MR (shown in FIG. 5)

| Structure (SMILES) | activation of MR L848Q (MR L848Q; versus wild type MR) | EC50 [1, 2] | EC50 [1, 3] [nM] | EC50 (MR L848Q; Cos-7, MMTV-Luc, read-out: EC50, activation of MR L848Q) [nM] | decrease of potency by L848Q mutation (MR L848Q; versus wild type MR) | potency of corticosterone relative to cortisol ([1]; wild type MR) |
| --- | --- | --- | --- | --- | --- | --- |
| C[C@]12CCC(=O)C=C1CC[C@@H]1[C@@H]2[C@@H](O)C[C@@]2(C)[C@H]1CC[C@]2(O)C(=O)CO [cortisol] | not affected | 0.6 nM | 0.1 to 1 |  |  |  |
| C[C@]12C[C@H](O)[C@H]3[C@@H](CCC4=CC(=O)CC[C@@]43C)[C@@H]1CC[C@@H]2C(=O)CO [corticosterone] |  | 0.08 nM and < 0.1 nM | 0.1 to 1 | ~1 | at least 10 fold | roughly 10 fold |
